Data: patent US20230235374A1, “High Throughput Assays for Detecting Translation Readthrough Inducers” (The Trustees of the University of Pennsylvania, priority 2021, published 2023)
Like-named read-outs stand apart in the source and are kept apart here.

How the values were obtained:
[1] = system: Stop-POST5 complex (RFC-dependent termination); experiment: smTIRF assay of RFC-dependent peptide and tRNA release; assay type: biochemical, shrimp (Artemia salina); settings: saturating RFC (0.65 μM eRF1, 1.3 μM eRF3)
[2] = system: Atto(pep)-Stop-POST5 (RFC-dependent termination); experiment: Plate reader fluorescence anisotropy assay of pentapeptide release; assay type: biochemical, shrimp (Artemia salina); settings: absence of ataluren
Experimental: Plate reader assays were run in a Tecan F200® 96-well plate reader (Greiner® black, non-binding, chimney flat) equipped with 640 nm excitation and 700 nm polarization filters using 96-well plates. Atto(pep)-Stop-POST5 in Buffer 4 (0.1 μM, 80 μl) containing GTP (1 mM) was added to plate wells±ataluren at 25° C. eRF1 and eRF3 aliquots stored at −80° C. were thawed for 15 s at 37° C. and added directly to a premade ice-cold GTP (1 mM)±ataluren solution in Buffer 4. The resulting release factor solution was incubated at 25° C. for 1 min, and then added quickly in 80 μL portions to the Atto(pep)-Stop-POST5 containing wells with a multichannel pipette to the Atto(pep)-Stop-Posts wells. The final concentrations were: eRF1, 0.025-0.4 μM; eRF3, 0.8 μM; Atto(pep)-Stop-Posts, 0.05 μM. Fluorescence anisotropy decay graphs were fit with GraphPad Prism, using the one phase decay model to obtain peptide dissociation rates.
Ensemble fluorescence anisotropy results using Atto(pep)-Stop-POST5. The fluorescence anisotropy of the pentapeptidyl moiety of Atto(pep)-Stop-POST5 was quite high (0.22), and decreased following addition of RFC, providing a convenient measure of the rate of pentapeptide release from the ribosome. […] Each such time dependency could be fit to a single exponential, giving the collected rate constants presented in FIG. 9G, in which the rate dependence as a function of RFC concentration was measured at 0, 200, 500, and 1,000 μM ataluren. In the absence of ataluren, EC50 (0.029±0.002 μM) and Vmax (0.31±0.02) values were obtained for pentapeptide release similar to those measured by smTIRF. In addition, as with the smTIRF results, Vmax values were unaffected by added ataluren but EC50 values increased, reaching ˜0.06 μM at 1000 μM.

[3] = system: Stop-POST5 complex (RFC-dependent termination); experiment: smTIRF assay of RFC-dependent peptide and tRNA release; assay type: biochemical, shrimp (Artemia salina)
Experimental: Immobilization of ribosome Stop-POST 5 complexes. PEGylated flow chambers were incubated in 0.5 mg/ml streptavidin for 5 mins and washed with Buffer 4. Biotinylated Stop-POST5 containing FK(atto647)VRQ-tRNA^Gln (Cy3) in the P-site, was formed at room temperature by incubating Stop-POST4, eEF1A, GTP, and Gln-(Cy3)tRNA^Gln for 5 mins and then injected into the streptavidin-coated slide chamber. After a 5 min incubation, excess unbound ribosome was flowed out. Then eRF1/eRF3±TRIDs was injected dynamically at 3 sec while recording. The injection dead time was subtracted for each particle.
Single-molecule fluorescence imaging. All sm-TIRF studies were carried out at 24° C. All dilutions, complex formation, and single-molecule imaging were carried out in Buffer 4 with an added enzymatic oxygen scavenging system of 2 mM protocatechuic acid (PCA), 50 nM protocatechunate 3,4 dioxygenase (PCD, Sigma Aldrich), 1 mM cyclooctatetraene (COT, Sigma Aldrich), 1 mM 4-nitrobenzyl alcohol (NBA, Sigma Aldrich), and 1.5 mM 6-hydroxy-2,5,7,8-tetramethyl-chromane-2-carboxylic acid (Trolox, Sigma-Aldrich) (Flis et al., Cell reports, 25(10), 2676-2688 (2018).
Image stacks were recorded at 100 ms frame rate on a custom-built objective-type total internal reflection fluorescence (TIRF) microscope based on a commercial inverted microscope (Eclipse Ti-E, Nikon) and capable of performing alternating-laser excitation (ALEX) between 532 nm and 640 nm laser beams using an acousto-optic tunable filter (AOTF, Chen et al., 2011). For the time-lapse experiment, timing of the movies, programmed into NIS-Elements (Nikon) microscope software, were recorded by illuminating the sample for 50-20 frames at 10 frames per s with 15 s or […] intervening dark intervals. Video recording was started and then eRF1/eRF3±TRIDs was injected from a triggered syringe pump at 3 sec while recording. The injection dead time was subtracted for each particle. Triggering of the shutters, AOTF, and pump was synchronized using LabView scripts driven from the camera exposure signal.
Data analysis. Collected movies were analyzed by a custom-made software program developed as an ImageJ plugin (Chen et al., Mol. Cell, 42, 367-377 (2011)), and further analyzed using Python. Distributions of peptide and tRNA dissociation times were fit to eq (5), using maximum likelihood estimation (Bevington and Robinson. Data Reduction and Error Analysis for the Physical Sciences. New York: McGraw-Hill, (2002); Woody et al., Biophys. J. 111, 273-282 (2016)), where P is the probability density.
smTIRF results using Atto(pep)-Cy-Stop-POST5 attached to surface-immobilized ribosomes. Although the distance between the two fluorophores is not close enough to produce FRET, fluorescent pairs could be identified by co-localization on the slide under alternating 532 nm and 640 nm total internal reflection fluorescence (TIRF) illumination. This permits near-simultaneous monitoring of the dynamics of peptide and P-site tRNA release from the Stop-POST5 complex following RFC binding.
To reduce photobleaching of each fluorophore, time-lapse movies were recorded with bursts of 20 or 50 frames at 100 ms frame intervals interleaved by 20 s intervals with the lasers shuttered. Total recording time for each trial was 20 min.
FIG. 8A and FIG. 8C show typical frame by frame recordings indicating a loss of signal for both labeled peptide and labeled tRNA after the addition of the RFC to Atto(pep)-Cy(tRNA)-Stop-POST5. Either peptide (a) or tRNA (b) can dissociate first, in approximately equal proportions. Photobleaching of Cy3-labeled tRNA and Atto647-labeled peptide in the absence of eRF1/eRF3 was much slower (FIG. 8E and FIG. 8F). Under the time lapse illumination employed, mean lifetimes for Atto647-peptide and Cy3-tRNA at 0.32 μM eRF1 and 2 μM eRF3 were each 2.45 min. […]

Trp-PRE6 complex = experiment: smFRET translocation of Trp-PRE6 to Trp-POST6; assay type: biochemical; settings: 23° C.
Excerpt: Changes in FRET (FIGS. 16E-16G) were used to determine the rate of translocation (FIG. 16H) and the residence time of deacylated tRNA dissociation from the E-site (FIG. 16I) as functions of [eEF2.GTP].

[4] = 0.32 μM eRF1 and 2 μM eRF3, time lapse illumination
[5] = absence of ataluren, Michaelis-Menten fit

Molecule: RFC: release factor complex of eRF1 and eRF3 with GTP catalysing termination
- rate constant, Atto(pep)-Cy(rbsm)-Stop-POST5 [1]: 0.26 ± 0.03 min⁻¹
- rate constant, Atto(rbsm)-Cy(tRNA)-Stop-POST5 [1]: 0.20 ± 0.03 min⁻¹
- EC50 [2]: 29 ± 2 nM
- Vmax, pentapeptide release [2]: 0.31±0.02
- mean lifetime, Atto647-peptide [3, 4]: 2.45 min
- mean lifetime, Cy3-tRNA [3, 4]: 2.45 min
- peptide release rate constants, As 2nd product ([3]; [RFC] 0.016 μM): 0.12 ± 0.03 min⁻¹
- peptide release rate constants, Overall ([3]; [RFC] 0.016 μM): 0.13 ± 0.02 min⁻¹
- tRNA release rate constants, As 2nd product ([3]; [RFC] 0.016 μM): 0.086 ± 0.023 min⁻¹
- tRNA release rate constants, Overall ([3]; [RFC] 0.016 μM): 0.10 ± 0.02 min⁻¹
- peptide release rate constants, As 2nd product ([3]; [RFC] 0.032 μM): 0.15 ± 0.02 min⁻¹
- peptide release rate constants, Overall ([3]; [RFC] 0.032 μM): 0.16 ± 0.02 min⁻¹
- tRNA release rate constants, As 2nd product ([3]; [RFC] 0.032 μM): 0.063 ± 0.021 min⁻¹
- tRNA release rate constants, Overall ([3]; [RFC] 0.032 μM): 0.12 ± 0.02 min⁻¹
- peptide release rate constants, As 2nd product ([3]; [RFC] 0.080 μM): 0.15 ± 0.02 min⁻¹
- peptide release rate constants, Overall ([3]; [RFC] 0.080 μM): 0.21 ± 0.02 min⁻¹
- tRNA release rate constants, As 2nd product ([3]; [RFC] 0.080 μM): 0.12 ± 0.02 min⁻¹
- tRNA release rate constants, Overall ([3]; [RFC] 0.080 μM): 0.17 ± 0.03 min⁻¹
- peptide release rate constants, As 2nd product ([3]; [RFC] 0.166 μM): 0.19 ± 0.02 min⁻¹
- peptide release rate constants, Overall ([3]; [RFC] 0.166 μM): 0.24 ± 0.01 min⁻¹
- tRNA release rate constants, As 2nd product ([3]; [RFC] 0.166 μM): 0.14 ± 0.03 min⁻¹
- tRNA release rate constants, Overall ([3]; [RFC] 0.166 μM): 0.18 ± 0.02 min⁻¹
- peptide release rate constants, As 2nd product ([3]; [RFC] 0.32 μM): 0.24 ± 0.03 min⁻¹
- peptide release rate constants, Overall ([3]; [RFC] 0.32 μM): 0.26 ± 0.02 min⁻¹
- tRNA release rate constants, As 2nd product ([3]; [RFC] 0.32 μM): 0.17 ± 0.03 min⁻¹
- tRNA release rate constants, Overall ([3]; [RFC] 0.32 μM): 0.20 ± 0.02 min⁻¹
- peptide release rate constants, As 2nd product ([3]; [RFC] 0.65 μM): 0.23 ± 0.04 min⁻¹
- peptide release rate constants, Overall ([3]; [RFC] 0.65 μM): 0.27 ± 0.03 min⁻¹
- tRNA release rate constants, As 2nd product ([3]; [RFC] 0.65 μM): 0.23 ± 0.04 min⁻¹
- tRNA release rate constants, Overall ([3]; [RFC] 0.65 μM): 0.21 ± 0.03 min⁻¹
- peptide release rate constants, As 2nd product ([3]; [RFC] 1.61 μM): 0.25 ± 0.03 min⁻¹
- peptide release rate constants, Overall ([3]; [RFC] 1.61 μM): 0.26 ± 0.02 min⁻¹
- tRNA release rate constants, As 2nd product ([3]; [RFC] 1.61 μM): 0.15 ± 0.02 min⁻¹
- tRNA release rate constants, Overall ([3]; [RFC] 1.61 μM): 0.20 ± 0.02 min⁻¹
- Vmax, peptide dissociation [3, 5]: ~0.27 ± 0.02 min⁻¹
- Vmax, tRNA dissociation [3, 5]: 0.20 ± 0.02 min⁻¹
- EC50 ([3]; absence of ataluren, read-out: EC50, peptide dissociation): ~20 nM
- EC50 ([3]; absence of ataluren, read-out: EC50, tRNA dissociation): ~20 nM

B1: eEF2: yeast eukaryotic elongation factor 2 (protein, UniProt P32324 1-842, looked up)
Elongation factor 2: MVAFTVDQMRSLMDKVTNVRNMSVIAHVDHGKSTLTDSLVQRAGIISAAKAGEARFTDTRKDEQERGITIKSTAISLYSEMSDEDVKEIKQKTDGNSFLINLIDSPGHVDFSSEVTAALRVTDGALVVVDTIEGVCVQTETVLRQALGERIKPVVVINKVDRALLELQVSKEDLYQTFARTVESVNVIVSTYADEVLGDVQVYPARGTVAFGSGLHGWAFTIRQFATRYAKKFGVDKAKMMDRLWGDSFFNPKTKKWTNKDTDAEGKPLERAFNMFILDPIFRLFTAIMNFKKDEIPVLLEKLEIVLKGDEKDLEGKALLKVVMRKFLPAADALLEMIVLHLPSPVTAQAYRAEQLYEGPADDANCIAIKNCDPKADLMLYVSKMVPTSDKGRFYAFGRVFAGTVKSGQKVRIQGPNYVPGKKDDLFIKAIQRVVLMMGRFVEPIDDCPAGNIIGLVGIDQFLLKTGTLTTSETAHNMKVMKFSVSPVVQVAVEVKNANDLPKLVEGLKRLSKSDPCVLTYMSESGEHIVAGTGELHLEICLQDLEHDHAGVPLKISPPVVAYRETVESESSQTALSKSPNKHNRIYLKAEPIDEEVSLAIENGIINPRDDFKARARIMADDYGWDVTDARKIWCFGPDGNGPNLVIDQTKAVQYLHEIKDSVVAAFQWATKEGPIFGEEMRSVRVNILDVTLHADAIHRGGGQIIPTMRRATYAGFLLADPKIQEPVFLVEIQCPEQAVGGIYSVLNKKRGQVVSEEQRPGTPLFTVKAYLPVNESFGFTGELRQATGGQAFPQMVFDHWSTLGSDPLDPTSKAGEIVLAARKRHGMKEEVPGWQEYYDKL
- kcat, translocation (Trp-PRE6 complex): 1.0 s⁻¹
- Km (Trp-PRE6 complex; read-out: Km^eEF2, translocation): 0.28 µM
